In patent publication US20250040548A1, “Herbicidal compositions comprising saflufenacil” (BASF SF, priority 2023, published 2025):

What was measured:
[1] = test system: EPHHL; assay: Post-emergence application in field trials (Examples 2 and 3); format: in vivo, Euphorbia heterophylla; details: 21 DAT, growth stage 12-16, height 5-15 cm, 0.5% MSO
Protocol: (§1) In the examples below, using the method of S. R. Colby (1967) “Calculating synergistic and antagonistic responses of herbicide combinations”, Weeds 15, p. 22ff., the value E, which is expected if the activity of the individual active compounds is only additive, was calculated.
(§2) [formula] • where • X=percent activity using active herbicide A at an application rate a; • Y=percent activity using active saflufenacil at an application rate b; • E=expected activity (in %) by A+B at application rates a+b.
(§3) If the value found experimentally is higher than the value E calculated according to Colby, a synergistic effect is present.
(§4) On field test sites, natural weed infestation or seeded weeds were treated post-emergence of the weeds.
(§5) For the post emergence treatment, the weedy plants were treated as indicated below. The herbicidal compositions were, together with the adjuvant(s) as indicated, suspended or emulsified in water (200 l/ha unless indicated otherwise) as distribution medium and sprayed with commercial flat fan nozzles.
(§6) In the following experiments, the herbicidal activity for the individual herbicidal compositions (solo and mixture applications) was assessed the indicated days after treatment (DAT). The assessments for the damage on undesired weeds caused by the composition was carried out using a scale from 0 to 100%, compared to the untreated control plants. […]

[2] = test system: DIGSA; assay: as above; format: in vivo, Digitaria sanguinales
Protocol: as §1, §2, §3, §4, §5
(§7) In the following experiments, the herbicidal activity for the individual herbicidal compositions (solo and mixture applications) was assessed the indicated days after treatment (DAT). The assessments for the damage on undesired weeds caused by the composition was carried out using a scale from 0 to 100%, compared to the untreated control plants. Here, 0 means no damage and 100 means complete destruction of the plants.
as §5, with “I/ha” for “l/ha”

[3] = test system: SORVU* (non-PPOi herbicide tolerant); assay: as above; format: in vivo, Sorghum vulgare
Protocol: as §1, §2, §3, §4, §5, §7
as §5, with “I/ha” for “l/ha”

[4] = test system: AMATA; assay: Post-emergence application in greenhouse trials; format: in vivo, Amaranthus tamariscinus; details: 20 DAT, growth stage 14, 1% MSO
Protocol: as §1, §2, §3
(§8) The culture containers used were plastic pots containing loamy sand with approximately 3.0% of humus as substrate. The seeds of the test plants were sown separately for each species.
(§9) For the post-emergence treatment, the test plants were grown to a plant height of from 3 to 15 cm, depending on the plant habit, and only then treated with the active compounds which had been suspended or emulsified in water. To this end, the test plants were either sown directly, and grown in the same containers, or they were first grown separately as seedlings and transplanted into the test containers a few days prior to treatment.
(§10) Depending on the species, the plants were kept at 10-25° C. and 20-35° C., respectively.
(§11) The test period extended over 2 to 4 weeks. During this time, the plants were tended and their response to the individual treatments was evaluated.
(§12) Evaluation was carried out using a scale from 0 to 100. 100 means no emergence of the plants, or complete destruction of at least the above-ground parts, and 0 means no damage or normal course of growth. A good herbicidal activity is given at values of at least 70, and very good herbicidal activity is given at values of at least 85.
(§13) Unless indicated otherwise, herbicide A and saflufenacil were formulated (50 g/I) and applied with addition of 1% MSO (methylated seed oil) as adjuvant. In the greenhouse trials, the solvent used was water (200 I/ha).

[5] = test system: ERICA; assay: Post-emergence application in greenhouse trials; format: in vivo, Erigeron canadensis; details: 21 DAT, growth stage 31, saflufenacil as commercial 342 g/l SC formulation
Protocol: as §1, §2, §3, §8, §9, §10, §11, §12, §13

[6] = test system: SETIT; assay: Post-emergence application in field trials (Examples 2 and 3); format: in vivo, Setaria italica; details: height 21-31 cm, 22 DAT, 1% v/v MSO
Protocol: as §1, §2, §3, §4, §5, §6

[7] = test system: IPOTR; assay: as above; format: in vivo, Ipomoea triloba; details: growth stage 40-41, height 65-75 cm, 21 DAT, 1% Dash ® HC
Protocol: as §1, §2, §3, §4, §5, §6

[8] = test system: ECHCG; assay: as above; format: in vivo, Echinocloa crus-galli
Protocol: as §1, §2, §3, §4, §5, §7
as §5, with “I/ha” for “l/ha”

[9] = test system: LOLRI; assay: as above; format: in vivo, Lolium rigidum; details: 14 DAT, 1% v/ MSO
Protocol: as §1, §2, §3, §4, §5, §6

[10] = test system: ECHCG; assay: Post-emergence application in greenhouse trials; format: in vivo, Echinocloa crus-galli; details: growth stage 13, saflufenacil as commercial 342 g/l SC formulation
Protocol: as §1, §2, §3, §8, §9, §10, §11, §12, §13

[11] = test system: DIGIN; assay: Post-emergence application in field trials (Examples 2 and 3); format: in vivo, Digitaria insularis
Protocol: as §1, §2, §3, §4, §5, §7
as §5, with “I/ha” for “l/ha”

[12] = test system: CYPES; assay: as above; format: in vivo, Cyperus esculentus; details: 21 DAT, height 15-23 cm, 140 l/ha water, 1% MSO + 2.5% ammoniumsulfate
Protocol: as §1, §2, §3, §4, §5, §6

[13] = test system: HORVS* (non-PPOi herbicide tolerant); assay: as above; format: in vivo, Hordeum vulgare; details: 1% v/v MSO
Protocol: as §1, §2, §3, §4, §5, §7
as §5, with “I/ha” for “l/ha”

[14] = test system: ERICA; assay: as above; format: in vivo, Erigeron canadensis; details: 21 DAT
Protocol: as §1, §2, §3, §4, §5, §7
as §5, with “I/ha” for “l/ha”

[15] = test system: BRADC; assay: Post-emergence application in greenhouse trials; format: in vivo, Brachiaria decumbens; details: growth stage 12, saflufenacil as commercial 342 g/l SC formulation
Protocol: as §1, §2, §3, §8, §9, §10, §11, §12, §13

CCOC(=O)COc1ccccc1Oc1nc(-n2c(=O)cc(C(F)(F)F)n(C)c2=O)c(F)cc1Cl [A-1, ethyl 2-[2-[[3-chloro-5-fluoro-6-[3-methyl-2,6-dioxo-4-(trifluoromethyl)pyrimidin-1-yl]-2-pyridyl]oxy]phenoxy]acetate]
% Herbicidal activity ([1]; A-1 25 g ai/ha): 97% | % Herbicidal activity ([2]; A-1 12.5 g ai/ha, 19 DAT, growth stage 13-19, height 2.5-7.5 cm, 1% v/v MSO and 1% w/v ammoniumsulfate): 87% | % Herbicidal activity ([2]; A-1 12.5 g ai/ha, 21 DAT, height 3-12 cm, 140 l/ha water, 1% MSO + 2.5% ammoniumsulfate): 50% | % Herbicidal activity ([3]; A-1 50 g ai/ha, 25 DAT, growth stage 14-15, field, 0.25 l/ha Dash MSO Max ®): 93% | % Herbicidal activity ([3]; SORVU* (non-PPOi herbicide tolerant), height 21-31 cm, A-1 solo 30 g ai/ha, 22 DAT, 1% v/v MSO): 96% | % Herbicidal activity ([4]; A-1 0.2 g ai/ha): 75% | % Herbicidal activity ([4]; A-1 0.3 g ai/ha): 75% | % Herbicidal activity ([5]; A-1 1.56 g ai/ha): 10% | % Herbicidal activity ([5]; A-1 3.12 g ai/ha): 10% | % Herbicidal activity ([5]; A-1 6.25 g ai/ha): 30% | % Herbicidal activity ([6]; A-1 solo 40 g ai/ha): 83% | % Herbicidal activity ([7]; A-1 solo 30 g ai/ha): 57% | % Herbicidal activity ([8]; A-1 12.5 g ai/ha, 14 DAT, growth stage 14-19, height 2-8 cm, field, 140 l/ha water, 1% MSO + 2.5% ammoniumsulfate): 75% | % Herbicidal activity ([8]; A-1 25 g ai/ha, 21 DAT, height 12.5-30 cm, field, 1% v/v MSO and 1% w/v ammoniumsulfate): 58% | % Herbicidal activity ([8]; ECHCG, growth stage 21-23, height 43-44 cm, A-1 solo 30 g ai/ha, 21 DAT, 1% Dash ® HC): 52% | % Herbicidal activity ([9]; growth stage 12-22, A-1 solo 25 g ai/ha): 85% | % Herbicidal activity ([10]; A-1 1.56 g ai/ha, 7 DAT): 70% | % Herbicidal activity ([10]; A-1 1.56 g ai/ha, 21 DAT): 55% | % Herbicidal activity ([11]; A-1 50 g ai/ha, 7 DAT, height 60-80 cm, field, 0.5% v/v MSO): 70% | % Herbicidal activity ([11]; DIGIN, growth stage 65, height 40-50 cm, A-1 solo 30 g ai/ha, 21 DAT, 1% v/v MSO): 53% | % Herbicidal activity ([12]; A-1 12.5 g ai/ha): 47% | % Herbicidal activity ([13]; A-1 18 g ai/ha, 29 DAT, growth stage 15-24, height 25-45 cm, field, 100 l/ha water): 73% | % Herbicidal activity ([13]; HORVS* (non-PPOi herbicide tolerant), growth stage 15, height 31-43 cm, A-1 solo 12.5 g ai/ha, 16 DAT): 72% | % Herbicidal activity ([13]; HORVS* (non-PPOi herbicide tolerant), growth stage 15, height 31-43 cm, A-1 solo 50 g ai/ha, 16 DAT): 96% | % Herbicidal activity ([14]; A-1 6.25 g ai/ha, height 12.5-25 cm, field, 140 l/ha water, 1% MSO + 2.5% ammoniumsulfate): 7% | % Herbicidal activity ([14]; A-1 12.5 g ai/ha, height 12.5-25 cm, field, 140 l/ha water, 1% MSO + 2.5% ammoniumsulfate): 17% | % Herbicidal activity ([14]; ERICA, height 5-10 cm, A-1 solo 25 g ai/ha, 1% v/v MSO and 1% AMS (ammonium sulfate)): 60% | % Herbicidal activity ([15]; A-1 1.56 g ai/ha, 21 DAT): 75% | % Herbicidal activity ([15]; A-1 3.12 g ai/ha, 7 DAT): 85% | % Herbicidal activity ([15]; A-1 3.12 g ai/ha, 21 DAT): 85%

CC(C)N(C)S(=O)(=O)NC(=O)c1cc(-n2c(=O)cc(C(F)(F)F)n(C)c2=O)c(F)cc1Cl [B-1, saflufenacil]
% Herbicidal activity ([1]; B-1 25 g ai/ha): 5% | % Herbicidal activity ([2]; B-1 12.5 g ai/ha, 21 DAT, height 3-12 cm, 140 l/ha water, 1% MSO + 2.5% ammoniumsulfate): 20% | % Herbicidal activity ([2]; B-1 25 g ai/ha, 19 DAT, growth stage 13-19, height 2.5-7.5 cm, 1% v/v MSO and 1% w/v ammoniumsulfate): 23% | % Herbicidal activity ([3]; B-1 25 g ai/ha, 25 DAT, growth stage 14-15, field, 0.25 l/ha Dash MSO Max ®): 3% | % Herbicidal activity ([3]; SORVU* (non-PPOi herbicide tolerant), height 21-31 cm, B-1 solo 25 g ai/ha, 22 DAT, 1% v/v MSO): 13% | % Herbicidal activity ([4]; B-1 0.2 g ai/ha): 70% | % Herbicidal activity ([4]; B-1 0.3 g ai/ha): 85% | % Herbicidal activity ([5]; B-1 3.12 g ai/ha): 30% | % Herbicidal activity ([6]; B-1 solo 25 g ai/ha): 23% | % Herbicidal activity ([7]; B-1 solo 25 g ai/ha): 43% | % Herbicidal activity ([8]; B-1 12.5 g ai/ha, 14 DAT, growth stage 14-19, height 2-8 cm, field, 140 l/ha water, 1% MSO + 2.5% ammoniumsulfate): 40% | % Herbicidal activity ([8]; B-1 25 g ai/ha, 21 DAT, height 12.5-30 cm, field, 1% v/v MSO and 1% w/v ammoniumsulfate): 23% | % Herbicidal activity ([8]; ECHCG, growth stage 21-23, height 43-44 cm, B-1 solo 25 g ai/ha, 21 DAT, 1% Dash ® HC): 27% | % Herbicidal activity ([9]; growth stage 12-22, B-1 solo 25 g ai/ha): 20% | % Herbicidal activity ([10]; B-1 3.12 g ai/ha, 7 DAT): 65% | % Herbicidal activity ([10]; B-1 3.12 g ai/ha, 21 DAT): 40% | % Herbicidal activity ([11]; B-1 25 g ai/ha, 7 DAT, height 60-80 cm, field, 0.5% v/v MSO): 8% | % Herbicidal activity ([11]; DIGIN, growth stage 65, height 40-50 cm, B-1 solo 25 g ai/ha, 21 DAT, 1% v/v MSO): 5% | % Herbicidal activity ([12]; B-1 12.5 g ai/ha): 25% | % Herbicidal activity ([13]; B-1 18 g ai/ha, 29 DAT, growth stage 15-24, height 25-45 cm, field, 100 l/ha water): 0% | % Herbicidal activity ([13]; HORVS* (non-PPOi herbicide tolerant), growth stage 15, height 31-43 cm, B-1 solo 25 g ai/ha, 16 DAT): 3% | % Herbicidal activity ([14]; B-1 6.25 g ai/ha, height 12.5-25 cm, field, 140 l/ha water, 1% MSO + 2.5% ammoniumsulfate): 40% | % Herbicidal activity ([14]; B-1 12.5 g ai/ha, height 12.5-25 cm, field, 140 l/ha water, 1% MSO + 2.5% ammoniumsulfate): 73% | % Herbicidal activity ([14]; ERICA, height 5-10 cm, B-1 solo 25 g ai/ha, 1% v/v MSO and 1% AMS (ammonium sulfate)): 90% | % Herbicidal activity ([15]; B-1 3.12 g ai/ha, 7 DAT): 40% | % Herbicidal activity ([15]; B-1 3.12 g ai/ha, 21 DAT): 25%
